Measurements published in patent US20240368135A1 (VERTEX PHARMACEUTICALS INCORPORATED, priority 2021, published 2024).
Read-outs that look alike come from different tables or passages of the source.

Target: human NaV 1.8 (Homo sapiens, UniProt Q9Y5Y9)
Experiment: E-VIPR assay detecting and measuring NaV inhibition properties
Format: cell-based
Details: HEK cells expressing truncated human NaV 1.8
Text: Sodium ion channels are voltage-dependent proteins that can be activated by inducing membrane voltage changes by applying electric fields. The electrical stimulation instrument and methods of use, referred to as E-VIPR, are described in International Publication No. WO 2002/008748 A3 and C.-J. Huang et al. Characterization of voltage-gated sodium channel blockers by electrical stimulation and fluorescence detection of membrane potential, 24 Nature Biotech. 439-46 (2006), both of which are incorporated by reference in their entirety. The instrument comprises a microtiter plate handler, an optical system for exciting the coumarin dye while simultaneously recording the coumarin and oxonol emissions, a waveform generator, a current- or voltage-controlled amplifier, and parallel electrode pairs that are inserted into assay plate wells. Under integrated computer control, this instrument passes user-programmed electrical stimulus protocols to cells within the wells of the microtiter plate.
16-20 hours prior to running the assay on E-VIPR, HEK cells expressing a truncated form of human NaV 1.8 with full channel activity were seeded into microtiter 384-well plates, pre-coated with matrigel, at a density of 25,000 cells per well. 2.5-5% KIR2.1 Bacmam virus was added to the final cell suspension before seeding into cell plates. HEK cells were grown in Dulbecco's Modified Eagle's Medium (DMEM) supplemented with 10% FBS (Fetal Bovine Serum, qualified; Sigma #F4135), 1% NEAA (Non-Essential Amino Acids, Gibco #11140), 1% HEPES (Gibco #15630), 1% Pen-Strep (Penicillin-Streptomycin; Gibco #15140) and 5 μg/ml Blasticidin (Gibco #R210-01). Cells were expanded in vented cap cell culture flasks, with 90-95% humidity and 5% CO2.
Human Serum (HS, Millipore #S1P1-01KL, or Sigma SLBR5469V and SLBR5470V as a 50%/50% mixture, for 25% assay final concentration) • Bath 1 Buffer: • Sodium Chloride 160 mM (9.35 g/L), Potassium Chloride, 4.5 mM (0.335 g/L), Glucose 10 mM (1.8 g/L), Magnesium Chloride (Anhydrous) 1 mM (0.095 g/L), Calcium Chloride 2 mM (0.222 g/L), HEPES 10 mM (2.38 g/L) in water. • Na/TMA C1 Bath 1 Buffer: • Sodium Chloride 96 mM (5.61 g/L), Potassium Chloride 4.5 mM (0.335 g/L), Tetramethylammonium (TMA)-Cl 64 mM (7.01 g/L), Glucose 10 mM (1.8 g/L), Magnesium Chloride (Anhydrous) 1 mM (0.095 g/L), Calcium Chloride 2 mM (0.222 g/L) HEPES 10 mM (2.38 g/L) in water. • Hexyl Dye Solution (2× concentration): • Bath 1 Buffer containing 0.5% P-cyclodextrin (made fresh prior to each use, Sigma #C4767), 8 μM CC2-DMPE and 2 μM DiSBAC6(3). The solution was made by adding 10% Pluronic F127 stock equal to combined volumes of CC2-DMPE and DiSBAC6(3). The order of preparation was first mix Pluronic and CC2-DMPE, then add DiSBAC6(3), then while vortexing add Bath 1/p-Cyclodextrin.
Compound Loading Buffer (2× concentration): Na/TMA C1 Bath1 Buffer containing HS (omitted in experiments run in the absence of human serum (HS)) 50%, VABSC-1 1 mM, BSA 0.2 mg/ml (in Bath-1), KCl 9 mM, DMSO 0.625%.
1) To reach the final concentration in each well, 375 nL of each compound was pre-spotted (in neat DMSO) into polypropylene compound plates at 240× desired final concentration from an intermediate stock concentration of 0.075 mM, in an 11 point dose response, 3-fold dilution, resulting in a top dose of 300 nM final concentration in the cell plate. Vehicle control (neat DMSO), and positive control (an established NaV1.8 inhibitor, 25 μM final in assay in DMSO) were added manually to the outermost columns of each plate respectively. The compound plate was backfilled with 45 μL per well of Compound Loading Buffer resulting in a 240 fold dilution of compound following a 1:1 transfer of compound into the cell plate (see Step 6). Final DMSO concentration for all wells in the assay was 0.625% (0.75% DMSO was supplemented to the Compound Loading Buffer for a final DMSO concentration of 0.625%). […]

[1] = no human serum, read-out: IC50 in the E-VIPR Assay
[2] = in the presence of human serum (compound numbers followed by *), read-out: IC50 in the E-VIPR Assay, performed in the presence of human serum

Chain of human NaV 1.8 (Q9Y5Y9 126-399 limits assumed): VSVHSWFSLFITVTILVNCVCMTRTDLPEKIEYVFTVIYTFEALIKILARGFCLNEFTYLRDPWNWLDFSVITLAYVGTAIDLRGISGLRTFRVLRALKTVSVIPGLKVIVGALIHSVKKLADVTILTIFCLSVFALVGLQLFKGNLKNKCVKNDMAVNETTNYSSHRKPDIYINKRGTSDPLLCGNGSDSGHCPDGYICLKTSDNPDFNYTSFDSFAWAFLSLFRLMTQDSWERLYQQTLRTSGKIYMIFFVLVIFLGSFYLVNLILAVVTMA
Chain of human NaV 1.8 (Q9Y5Y9 660-890 limits assumed): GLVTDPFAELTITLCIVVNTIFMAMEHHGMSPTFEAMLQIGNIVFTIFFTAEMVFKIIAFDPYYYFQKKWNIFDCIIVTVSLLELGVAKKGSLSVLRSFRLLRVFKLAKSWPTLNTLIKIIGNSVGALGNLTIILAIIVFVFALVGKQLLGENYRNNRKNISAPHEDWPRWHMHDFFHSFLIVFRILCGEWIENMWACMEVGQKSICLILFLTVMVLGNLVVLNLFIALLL
Chain of human NaV 1.8 (Q9Y5Y9 1148-1722 limits assumed): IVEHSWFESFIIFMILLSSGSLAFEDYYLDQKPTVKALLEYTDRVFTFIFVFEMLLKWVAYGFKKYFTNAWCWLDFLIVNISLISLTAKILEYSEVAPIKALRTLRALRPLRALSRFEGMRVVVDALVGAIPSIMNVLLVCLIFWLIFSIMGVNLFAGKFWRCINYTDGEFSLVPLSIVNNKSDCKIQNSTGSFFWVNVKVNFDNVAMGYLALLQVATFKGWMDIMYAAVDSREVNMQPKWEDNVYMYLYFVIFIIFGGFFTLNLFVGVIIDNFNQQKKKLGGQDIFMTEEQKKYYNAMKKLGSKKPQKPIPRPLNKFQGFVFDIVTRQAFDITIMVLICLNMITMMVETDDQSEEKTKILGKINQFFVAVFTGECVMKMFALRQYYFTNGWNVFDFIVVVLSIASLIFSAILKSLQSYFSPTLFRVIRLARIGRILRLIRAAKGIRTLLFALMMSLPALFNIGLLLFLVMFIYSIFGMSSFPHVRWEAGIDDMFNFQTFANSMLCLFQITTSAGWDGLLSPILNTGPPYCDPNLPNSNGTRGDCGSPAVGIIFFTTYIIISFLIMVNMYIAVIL

| Structure (SMILES) | IC50 [1] [nM] | IC50 [2] [nM] |
| --- | --- | --- |
| COc1c([C@H]2[C@H](C(=O)Nc3ccnc(CN4CCOCC4)c3)O[C@@](C)(C(F)(F)F)[C@H]2C)ccc(F)c1F [Compound 181, (2R,3S,4S,5R)-3-(3,4-difluoro-2-methoxyphenyl)-4,5-dimethyl-N-(2-(morpholinomethyl)pyridin-4-yl)-5-(trifluoromethyl)tetrahydrofuran-2-carboxamide] | 10 to 100 | – |
| COc1c([C@H]2[C@H](C(=O)Nc3ccc4nc(C(=O)N5CCOCC5)cn4c3)O[C@@](C)(C(F)(F)F)[C@H]2C)ccc(F)c1F [Compound 259, (2R,3S,4S,5R)-3-(3,4-difluoro-2-methoxyphenyl)-4,5-dimethyl-N-(2-(morpholine-4-carbonyl)imidazo[1,2-a]pyridin-6-yl)-5-(trifluoromethyl)tetrahydrofuran-2-carboxamide] | 10 to 100 | – |
| COc1c([C@H]2[C@H](C(=O)Nc3ccnc(C(O)C4CC4)c3)O[C@@](C)(C(F)(F)F)[C@H]2C)ccc(F)c1F (single isomer, unassigned) [Compound 251, rel-(2R*,3S*,4S*,5R*)-N-(2-(cyclopropyl(hydroxy)methyl)pyridin-4-yl)-3-(3,4-difluoro-2-methoxyphenyl)-4,5-dimethyl-5-(trifluoromethyl)tetrahydrofuran-2-carboxamide] | < 10 | – |
| C[C@@H]1[C@H](c2ccc(F)c(F)c2OC(F)F)[C@@H](C(=O)Nc2ccn3nnnc3c2)O[C@]1(C)C(F)(F)F (single isomer, unassigned) [Compound 79] | 100 to 1000 | – |
| COc1c(C2C(C(=O)Nc3ccnc(C(O)CF)c3)OC(C)(C(F)(F)F)C2C)ccc(F)c1F (single isomer, unassigned) [Compound 252, rel-(2R*,3S*,4S*,5R*)-3-(3,4-difluoro-2-methoxyphenyl)-N-(2-(2-fluoro-1-hydroxyethyl)pyridin-4-y1)-4,5-dimethyl-5-(trifluoromethyl)tetrahydrofuran-2-carboxamide] | < 10 | – |
| CNC1CCN(c2cc(NC(=O)[C@@H]3O[C@@](C)(C(F)(F)F)[C@@H](C)[C@H]3c3ccc(F)c(F)c3OC)ccn2)C1=O (single isomer, unassigned) [Compound 501, rel-(2R*,3S*,4S*,5R*)-3-(3,4-difluoro-2-methoxyphenyl)-4,5-dimethyl-N-(2-(3-(methylamino)-2-oxopyrrolidin-1-yl)pyridin-4-yl)-5-(trifluoromethyl)tetrahydrofuran-2-carboxamide] | 10 to 100 | – |
| COc1c([C@H]2[C@H](C(=O)Nc3ccnc(C4(O)CCOC4)c3)O[C@@](C)(C(F)(F)F)[C@H]2C)ccc(F)c1F (single isomer, unassigned) [Compound 220, rel-(2R*,3S*,4S*,5R*)-3-(3,4-difluoro-2-methoxyphenyl)-N-(2-(3-hydroxy-tetrahydrofuran-3-yl)pyridin-4-yl)-4,5-dimethyl-5-(trifluoromethyl)tetrahydrofuran-2-carboxamide] | < 10 | – |
| COc1c([C@H]2[C@H](C(=O)Nc3ccc(C(=O)N(C)S(C)(=O)=O)nc3)O[C@@](C)(C(F)(F)F)[C@H]2C)ccc(F)c1F [Compound 376, 5-[[(2R,3S,4S,5R)-3-(3,4-difluoro-2-methoxy-phenyl)-4,5-dimethyl-5-(trifluoromethyl)tetrahydrofuran-2-carbonyl]amino]-N-methyl-N-methylsulfonyl-pyridine-2-carboxamide] | 10 to 100 | – |
| COc1c([C@H]2[C@H](C(=O)Nc3cncc(S(=O)(=O)N4CCN(C)CC4)c3)O[C@@](C)(C(F)(F)F)[C@H]2C)ccc(F)c1F [Compound 380, (2R,3S,4S,5R)-3-(3,4-difluoro-2-methoxyphenyl)-4,5-dimethyl-N-(5-((4-methylpiperazin-1-yl)sulfonyl)pyridin-3-yl)-5-(trifluoromethyl)tetrahydrofuran-2-carboxamide] | 10 to 100 | – |
| COc1c([C@H]2[C@H](C(=O)Nc3cc(C[C@@H](O)CO)n(C)n3)O[C@@](C)(C(F)(F)F)[C@H]2C)ccc(F)c1F [Compound 335, (2R,3S,4S,5R)-3-(3,4-difluoro-2-methoxy-phenyl)-N-[5-[(2R)-2,3-dihydroxypropyl]-1-methyl-pyrazol-3-yl]-4,5-dimethyl-5-(trifluoromethyl)tetrahydrofuran-2-carboxamide] | ≥ 1000 | – |
| CNC1CC(=O)N(c2cc(NC(=O)[C@@H]3O[C@@](C)(C(F)(F)F)[C@@H](C)[C@H]3c3ccc(F)c(F)c3OC)ccn2)C1 (single isomer, unassigned) [Compound 499, rel-(2R*,3S*,4S*,5R*)-3-(3,4-difluoro-2-methoxyphenyl)-4,5-dimethyl-N-(2-(4-(methylamino)-2-oxopyrrolidin-1-yl)pyridin-4-yl)-5-(trifluoromethyl)tetrahydrofuran-2-carboxamide] | 10 to 100 | – |

Now from value to molecule:

| IC50 [1] [nM] | IC50 [2] [nM] | Structure (SMILES) |
| --- | --- | --- |
| 100 to 1000 | – | Cc1nn(C(F)F)cc1NC(=O)[C@@H]1O[C@@](C)(C(F)(F)F)[C@@H](C)[C@H]1c1ccc(F)c(F)c1CN1CCN(C)CC1 [Compound 674, (2R,3S,4S,5R)-3-(3,4-difluoro-2-((4-methylpiperazin-1-yl)methyl)phenyl)-N-(1-(difluoromethyl)-3-methyl-1H-pyrazol-4-yl)-4,5-dimethyl-5-(trifluoromethyl)tetrahydrofuran-2-carboxamide] |
| – | 10 to 100 | COc1c([C@@H]2C[C@](C)(C(F)(F)F)O[C@H]2C(=O)Nc2ccnc([C@@H](O)[C@H](C)O)c2)ccc(F)c1F (relative stereo) [Compound 700, rel-(2R,3S,5R)-3-(3,4-difluoro-2-methoxyphenyl)-N-(2-((1R,2S)-1,2-dihydroxypropyl)pyridin-4-yl)-5-methyl-5-(trifluoromethyl)tetrahydrofuran-2-carboxamide] |
| 100 to 1000 | – | CN=S(C)(=O)c1cc(NC(=O)C2OC(C)(C(F)(F)F)C(C)C2c2ccc(F)c(F)c2OC)ccn1 (single isomer, unassigned) [Compound 529, 3-(3,4-difluoro-2-methoxy-phenyl)-N-[2-(N,S-dimethylsulfonimidoyl)-4-pyridyl]-4,5-dimethyl-5-(trifluoromethyl)tetrahydrofuran-2-carboxamide] |
| 10 to 100 | – | C[C@H]1[C@@H](c2ccc(F)c(F)c2OCCO)[C@H](C(=O)Nc2ccc(C(N)=O)nc2)O[C@@]1(C)C(F)(F)F [Compound 615, 5-((2R,3S,4S,5R)-3-(3,4-difluoro-2-(2-hydroxyethoxy)phenyl)-4,5-dimethyl-5-(trifluoromethyl)tetrahydrofuran-2-carboxamido)picolinamide] |
| – | ≥ 1000 | COc1c([C@H]2C[C@@](C)(C(F)(F)F)O[C@@H]2C(=O)Nc2cn(S(C)(=O)=O)nc2C)ccc(F)c1F (stereo in doubt) [Compound 683, rel-(2S,3R,5S)-3-(3,4-difluoro-2-methoxyphenyl)-5-methyl-N-(3-methyl-1-(methylsulfonyl)-1H-pyrazol-4-yl)-5-(trifluoromethyl)tetrahydrofuran-2-carboxamide] |
| 10 to 100 | – | C[C@H]1[C@@H](c2ccc(F)c(F)c2OCCN2CCOCC2)[C@H](C(=O)Nc2ccn(C)c(=O)c2)O[C@@]1(C)C(F)(F)F [Compound 588, (2R,3S,4S,5R)-3-(3,4-difluoro-2-(2-morpholinoethoxy)phenyl)-4,5-dimethyl-N-(1-methyl-2-oxo-1,2-dihydropyridin-4-yl)-5-(trifluoromethyl)tetrahydrofuran-2-carboxamide] |
